Source: article PMC12284294 (iScience, 2025)
Where two headings read alike, the source gives them in different places.

How the values were obtained:
[1] = system: human polymorphonuclear granulocytes (PMN; neutrophils); assay type: cell-based
FPR1 = target: T1, FPR1 (Homo sapiens, UniProt P21462); assay type: cell-based
T1 construct: expressed in transfected cells; host or cells: HEK293T
T1 sequence (P21462 1-350): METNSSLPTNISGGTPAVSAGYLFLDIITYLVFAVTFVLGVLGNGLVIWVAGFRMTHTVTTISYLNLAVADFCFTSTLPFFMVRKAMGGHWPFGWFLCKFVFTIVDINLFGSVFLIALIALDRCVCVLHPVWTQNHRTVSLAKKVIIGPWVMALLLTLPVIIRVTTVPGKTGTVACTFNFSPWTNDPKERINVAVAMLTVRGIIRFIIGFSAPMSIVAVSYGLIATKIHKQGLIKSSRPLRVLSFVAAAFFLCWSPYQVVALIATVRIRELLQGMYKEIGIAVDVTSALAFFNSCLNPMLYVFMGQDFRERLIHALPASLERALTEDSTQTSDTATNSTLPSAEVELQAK

[2] = SARS-CoV-2 omicron B.1.1.529 spike pool peptides, 10 µM, PMN, n=6

Row | Sequence | non-activators of FPR1 and PMNs: PMNs [1, 2] | non-activators of FPR1 and PMNs: FPR1 (FPR1) | non-activators of FPR1 and PMNs: PMNs [1] | significant PMN activators (group of the spike peptide pool screening) [1, 2] | significant FPR1 activators (group of the spike peptide pool screening) (FPR1)
1 | NCVADYSVLYNLAPF | non-activators of FPR1 and PMNs | non-activators of FPR1 and PMNs | – | – | –
2 | IFSRLDKVEAEVQID | – | non-activators of FPR1 and PMNs | non-activators of FPR1 and PMNs | – | –
3 | KQLSSKFGAISSVLN | non-activators of FPR1 and PMNs | non-activators of FPR1 and PMNs | – | – | –
4 | NTLVKQLSSKFGAIS | non-activators of FPR1 and PMNs | non-activators of FPR1 and PMNs | – | – | –
5 | SHRRARSVASQSIIA | non-activators of FPR1 and PMNs | non-activators of FPR1 and PMNs | – | – | –
6 | YFGGFNFSQILPDPS | non-activators of FPR1 and PMNs | non-activators of FPR1 and PMNs | – | – | –
7 | TYGVGHQPYRVVVLS | – | – | – | significant PMN activators | significant FPR1 activators
8 | IEKSNIIRGWIFGTT | non-activators of FPR1 and PMNs | non-activators of FPR1 and PMNs | – | – | –
9 | LKSYSFRPTYGVGHQ | non-activators of FPR1 and PMNs | non-activators of FPR1 and PMNs | – | – | –
10 | AQALNTLVKQLSSKF | non-activators of FPR1 and PMNs | non-activators of FPR1 and PMNs | – | – | –
11 | AGFNCYFPLKSYSFR | non-activators of FPR1 and PMNs | non-activators of FPR1 and PMNs | – | – | –
12 | RQIAPGQTGNIADYN | non-activators of FPR1 and PMNs | non-activators of FPR1 and PMNs | – | – | –
13 | DFTGCVIAWNSNKLD | non-activators of FPR1 and PMNs | non-activators of FPR1 and PMNs | – | – | –
14 | IIVREPEDLPQGFSA | non-activators of FPR1 and PMNs | non-activators of FPR1 and PMNs | – | – | –
15 | AISSVLNDIFSRLDK | non-activators of FPR1 and PMNs | non-activators of FPR1 and PMNs | – | – | –
16 | RFPNITNLCPFDEVF | non-activators of FPR1 and PMNs | non-activators of FPR1 and PMNs | – | – | –
17 | NKCVNFNFNGLKGTG | non-activators of FPR1 and PMNs | non-activators of FPR1 and PMNs | – | – | –
18 | VLNDIFSRLDKVEAE | non-activators of FPR1 and PMNs | non-activators of FPR1 and PMNs | – | – | –
19 | GNIADYNYKLPDDFT | non-activators of FPR1 and PMNs | non-activators of FPR1 and PMNs | – | – | –
20 | YFASIEKSNIIRGWI | non-activators of FPR1 and PMNs | non-activators of FPR1 and PMNs | – | – | –
21 | WNSNKLDSKVSGNYN | non-activators of FPR1 and PMNs | non-activators of FPR1 and PMNs | – | – | –
22 | LQDVVNHNAQALNTL | non-activators of FPR1 and PMNs | non-activators of FPR1 and PMNs | – | – | –

Row | Sequence | non-activators of FPR1 and PMNs: PMNs [1, 2] | non-activators of FPR1 and PMNs: FPR1 (FPR1) | non-activators of FPR1 and PMNs: PMNs [1] | significant PMN activators (group of the spike peptide pool screening) [1, 2] | significant FPR1 activators (group of the spike peptide pool screening) (FPR1)
23 | NVTWFHVISGTNGTK | – | – | – | significant PMN activators | significant FPR1 activators
24 | DLICAQKFKGLTVLP | – | – | – | significant PMN activators | –
25 | CNGVAGFNCYFPLKS | non-activators of FPR1 and PMNs | non-activators of FPR1 and PMNs | – | – | –
26 | CEFQFCNDPFLDHKN | non-activators of FPR1 and PMNs | non-activators of FPR1 and PMNs | – | – | –
27 | NGLKGTGVLTESNKK | non-activators of FPR1 and PMNs | non-activators of FPR1 and PMNs | – | – | –
28 | CVIAWNSNKLDSKVS | non-activators of FPR1 and PMNs | non-activators of FPR1 and PMNs | – | – | –
29 | KGLTVLPPLLTDEMI | – | – | – | – | significant FPR1 activators
30 | LLLQYGSFCTQLKRA | non-activators of FPR1 and PMNs | non-activators of FPR1 and PMNs | – | – | –
31 | GNKPCNGVAGFNCYF | non-activators of FPR1 and PMNs | non-activators of FPR1 and PMNs | – | – | –
32 | PFFSNVTWFHVISGT | – | – | – | significant PMN activators | significant FPR1 activators
33 | VNHNAQALNTLVKQL | non-activators of FPR1 and PMNs | non-activators of FPR1 and PMNs | – | – | –
34 | PGTNTSNQVAVLYQG | non-activators of FPR1 and PMNs | non-activators of FPR1 and PMNs | – | – | –
35 | KRALTGIAVEQDKNT | non-activators of FPR1 and PMNs | non-activators of FPR1 and PMNs | – | – | –
36 | LYNLAPFFTFKCYGV | – | – | – | significant PMN activators | significant FPR1 activators
37 | AGICASYQTQTKSHR | non-activators of FPR1 and PMNs | non-activators of FPR1 and PMNs | – | – | –
38 | FCNDPFLDHKNNKSW | non-activators of FPR1 and PMNs | non-activators of FPR1 and PMNs | – | – | –
39 | IAARDLICAQKFKGL | – | – | – | significant PMN activators | –
40 | PGQTGNIADYNYKLP | non-activators of FPR1 and PMNs | non-activators of FPR1 and PMNs | – | – | –
41 | NDGVYFASIEKSNII | non-activators of FPR1 and PMNs | non-activators of FPR1 and PMNs | – | – | –
42 | CPFDEVFNATRFASV | non-activators of FPR1 and PMNs | non-activators of FPR1 and PMNs | – | – | –
43 | STASALGKLQDVVNH | non-activators of FPR1 and PMNs | non-activators of FPR1 and PMNs | – | – | –
44 | YQGVNCTEVPVAIHA | non-activators of FPR1 and PMNs | non-activators of FPR1 and PMNs | – | – | –

Row | Sequence | non-activators of FPR1 and PMNs: PMNs [1, 2] | non-activators of FPR1 and PMNs: FPR1 (FPR1) | non-activators of FPR1 and PMNs: PMNs [1] | significant PMN activators (group of the spike peptide pool screening) [1, 2] | significant FPR1 activators (group of the spike peptide pool screening) (FPR1)
45 | CTQLKRALTGIAVEQ | non-activators of FPR1 and PMNs | non-activators of FPR1 and PMNs | – | – | –
46 | KIYSKHTPIIVREPE | non-activators of FPR1 and PMNs | non-activators of FPR1 and PMNs | – | – | –
47 | GAEYVNNSYECDIPI | non-activators of FPR1 and PMNs | non-activators of FPR1 and PMNs | – | – | –
48 | TSNQVAVLYQGVNCT | non-activators of FPR1 and PMNs | non-activators of FPR1 and PMNs | – | – | –
49 | KLDSKVSGNYNYLYR | non-activators of FPR1 and PMNs | non-activators of FPR1 and PMNs | – | – | –
50 | GDEVRQIAPGQTGNI | non-activators of FPR1 and PMNs | non-activators of FPR1 and PMNs | – | – | –
51 | SKFGAISSVLNDIFS | non-activators of FPR1 and PMNs | non-activators of FPR1 and PMNs | – | – | –
52 | ISTEIYQAGNKPCNG | non-activators of FPR1 and PMNs | non-activators of FPR1 and PMNs | – | – | –
53 | ALGKLQDVVNHNAQA | non-activators of FPR1 and PMNs | non-activators of FPR1 and PMNs | – | – | –
54 | SFRPTYGVGHQPYRV | non-activators of FPR1 and PMNs | non-activators of FPR1 and PMNs | – | – | –
55 | VAVLYQGVNCTEVPV | non-activators of FPR1 and PMNs | non-activators of FPR1 and PMNs | – | – | –
56 | KHTPIIVREPEDLPQ | non-activators of FPR1 and PMNs | non-activators of FPR1 and PMNs | – | – | –
57 | ASYQTQTKSHRRARS | non-activators of FPR1 and PMNs | non-activators of FPR1 and PMNs | – | – | –
58 | IYKTPPIKYFGGFNF | – | – | – | significant PMN activators | –
59 | IYQAGNKPCNGVAGF | non-activators of FPR1 and PMNs | non-activators of FPR1 and PMNs | – | – | –
60 | GHQPYRVVVLSFELL | – | – | – | significant PMN activators | significant FPR1 activators
61 | QTRAGCLIGAEYVNN | non-activators of FPR1 and PMNs | non-activators of FPR1 and PMNs | – | – | –
62 | CYFPLKSYSFRPTYG | non-activators of FPR1 and PMNs | non-activators of FPR1 and PMNs | – | – | –
63 | DYSVLYNLAPFFTFK | – | – | – | significant PMN activators | significant FPR1 activators
64 | AQKFKGLTVLPPLLT | – | – | – | – | significant FPR1 activators
